Marks after values point to notes of the source that are not given here.
Columns and labels:
P. acnes NCTC 737 = assay: Synthetic sebum time-to-kill assay; type: cell-based, Propionibacterium acnes; details: 49 μg/mL Cu usnate (equivalent)
Procedure: This quantitative assay was designed to assess the level of kill of a P. acnes culture in a synthetic sebum (non-aqueous environment) over a defined time period, in this case 4 hours. A culture of P. acnes NCTC 737 was inoculated into a synthetic sebum (a liquid mixture of lipid components designed to simulate human sebum) containing the relevant test compound or formulation diluted in 1-octanol. From this culture, samples were taken after 4 hours, 10-fold serially diluted in wash fluid (0.075 M sodium phosphate buffer, pH 7.9, 0.1% v/v Triton™-X 100) and inoculated onto agar plates (in triplicate). The plates were then incubated as described above and subsequently examined visually for growth. The numbers of viable microbial colonies on the plates were counted with the aid of a colony counter and converted to colony-forming units per ml (cfu/ml) using the appropriate dilution factor. Cell counts conducted in the absence of formulations (but still in the presence of 1-octanol) acted as positive controls. All experiments were conducted in triplicate.

[1] = system: Propionibacterium acnes NCTC 737; assay: Minimum inhibitory concentration (MIC) assay; type: cell-based; details: P. acnes NCTC 737
Procedure: (§1) The test organism used was Propionibacterium acnes NCTC 737. This is a propionibacterial strain and is the type strain of the […]; it is fully susceptible to antibiotics. The propionibacteria are clinically significant due to their involvement in acne. They are also opportunistic pathogens in compromised hosts. Activity observed against these micro-organisms is expected to be a good predictor of activity against acne.
(§2) The propionibacteria were cultured and maintained on Wilkins-Chalgren Anaerobe Medium (agar and broth) at pH 6.0; all cultures were incubated anaerobically at 37° C. for 72 hours.
This is a standard international method for quantitatively assessing the antimicrobial activity of a compound/formulation in a liquid medium. The method used a sterile 96-well microtitre plate, capable of holding about 200 μl of liquid per well. The wells contained liquid culture medium and ranges of decreasing concentrations of the relevant test compound/formulation (in this case reported as the relative concentration of the active molecule—copper usnate—in the formulations) in doubling dilutions (eg 1000, 500, 250, 125 . . . μg/ml, etc, down to 0.49 μg/ml). The culture media were as described above.
The wells were inoculated with a liquid suspension of freshly grown micro-organism and incubated under the conditions described above. After incubation, the microtitre plate was examined visually for cloudiness in each well, which would indicate microbial growth. The MIC value was recorded as the lowest concentration of test compound/formulation required to inhibit microbial growth, ie the lowest concentration for which the liquid in the well remained clear.
The assays included both negative (culture medium with no micro-organisms) and positive (culture medium plus diluting solvent plus micro-organism) controls.

S. aureus ATCC 29213 [2] = assay: MBC against S. aureus; type: cell-based
[3] = system: Corynebacterium striatum NCTC 764; assay: MIC against Corynebacterium striatum; type: cell-based
[4] = system: Propionibacterium acnes NCTC 737; assay: Minimum biocidal concentration (MBC) assay; type: cell-based; details: P. acnes NCTC 737
Procedure: as §1, §2
This assay, normally carried out after an MIC assay, determines the minimum concentration of a compound or formulation that is lethal to the test micro-organism.
These samples were then individually sub-cultured on antibiotic-free agar medium, under the incubation conditions described above. Following incubation they were examined visually for microbial growth.
The ratio of MIC to MBC should ideally be as close to 1 as possible. This facilitates selection of the lowest possible effective concentration of a test compound or formulation, with a reduced risk of selecting a sub-lethal concentration which could promote resistance or allow the target microbial population to recover.

[5] = system: Corynebacterium striatum NCTC 764; assay: MBC against Corynebacterium striatum; type: cell-based
S. aureus ATCC 29213 [6] = assay: MIC against S. aureus; type: cell-based

CC(=O)c1c([O-])c(C)c([O-])c2c1OC1=CC(=O)C(C(C)=O)C(=O)C12C.[Cu+2] (stereo not drawn) [Copper usnate, copper (II) di-usnate]
Log10 cfu/ml (T0 hours) (P. acnes NCTC 737; T0 hours): 7.97 Log10 cfu/ml
Log10 change (P. acnes NCTC 737; T0 to T4 hours): −4.97 Log10
Log10 cfu/ml (T4 hours) (P. acnes NCTC 737; T4 hours, lowest detectable level = 3.0 Log10 cfu/ml): ≤ 3.0* Log10 cfu/ml
MIC:MBC ratio ([1]; Example 13): 0.25
MIC ([1]; Example 13, formulations as Cu usnate equivalent, anaerobic 37° C. 72 hours): 0.24 µg/mL
minimum inhibitory concentration (MIC) ([1]; found by the present inventors): 0.49 µg/mL
MBC (S. aureus ATCC 29213 [2]): 62.5 µg/mL
MIC [3]: 3.9 µg/mL
MBC ([4]; Example 13, formulations as Cu usnate equivalent): 0.98 µg/mL
minimum biocidal concentration (MBC) ([4]; found by the present inventors): 3.9 µg/mL
MBC [5]: 62.5 µg/mL
MIC (S. aureus ATCC 29213 [6]): 7.8 µg/mL
